SMILES strings stand for the structures.

For this test, the target named is T1, mannose receptor (Rattus norvegicus, UniProt A0A8I5XVS2).
T1 construct: NR8383 rat alveolar macrophages were obtained from ATCC; host or cells: NR8383 rat alveolar macrophages
T1 sequence (A0A8I5XVS2 1-1431): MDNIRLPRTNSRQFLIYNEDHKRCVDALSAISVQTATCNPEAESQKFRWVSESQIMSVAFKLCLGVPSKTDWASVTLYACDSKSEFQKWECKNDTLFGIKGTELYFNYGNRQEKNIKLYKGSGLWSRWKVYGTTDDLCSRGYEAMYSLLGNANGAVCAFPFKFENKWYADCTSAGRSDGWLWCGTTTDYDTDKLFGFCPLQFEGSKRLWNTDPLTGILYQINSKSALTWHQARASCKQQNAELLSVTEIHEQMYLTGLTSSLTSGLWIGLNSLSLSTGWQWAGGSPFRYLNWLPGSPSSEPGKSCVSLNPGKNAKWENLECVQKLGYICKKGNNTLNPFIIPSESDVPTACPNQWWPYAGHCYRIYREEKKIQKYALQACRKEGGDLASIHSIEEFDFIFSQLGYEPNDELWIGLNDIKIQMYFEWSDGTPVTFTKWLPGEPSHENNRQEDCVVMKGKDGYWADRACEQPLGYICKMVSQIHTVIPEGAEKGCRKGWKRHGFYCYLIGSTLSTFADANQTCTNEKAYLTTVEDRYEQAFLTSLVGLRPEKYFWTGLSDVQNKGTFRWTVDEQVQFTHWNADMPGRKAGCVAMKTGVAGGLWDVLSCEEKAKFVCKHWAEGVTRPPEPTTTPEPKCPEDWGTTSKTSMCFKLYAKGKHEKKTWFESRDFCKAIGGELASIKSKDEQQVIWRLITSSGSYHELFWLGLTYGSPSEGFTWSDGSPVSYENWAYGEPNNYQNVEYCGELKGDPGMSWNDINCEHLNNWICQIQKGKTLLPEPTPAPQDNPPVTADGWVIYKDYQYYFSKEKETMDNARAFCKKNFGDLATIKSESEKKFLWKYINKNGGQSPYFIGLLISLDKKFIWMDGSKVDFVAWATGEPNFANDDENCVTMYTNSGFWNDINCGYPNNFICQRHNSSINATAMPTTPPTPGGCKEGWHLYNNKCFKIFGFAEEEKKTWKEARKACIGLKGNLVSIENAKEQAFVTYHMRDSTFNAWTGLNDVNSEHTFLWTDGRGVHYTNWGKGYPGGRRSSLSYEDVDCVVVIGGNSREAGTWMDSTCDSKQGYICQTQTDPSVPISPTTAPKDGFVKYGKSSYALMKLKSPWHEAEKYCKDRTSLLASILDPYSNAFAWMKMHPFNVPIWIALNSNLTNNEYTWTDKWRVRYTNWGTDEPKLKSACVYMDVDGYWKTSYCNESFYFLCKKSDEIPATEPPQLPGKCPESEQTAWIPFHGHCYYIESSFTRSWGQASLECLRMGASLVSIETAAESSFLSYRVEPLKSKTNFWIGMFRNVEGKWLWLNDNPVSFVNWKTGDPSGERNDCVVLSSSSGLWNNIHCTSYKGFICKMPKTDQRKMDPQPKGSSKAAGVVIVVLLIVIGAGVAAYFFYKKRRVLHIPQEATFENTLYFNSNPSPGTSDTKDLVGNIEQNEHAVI
The test is described as follows: Uptake of Alexa488-SI-0052 in NR8383 in the presence of competing sugars. In kind it is cell-based. As to conditions: 250 nM Alexa488-SI-0052, varying sugar concentrations; FIG. 1b. The method, then: NR8383 rat alveolar macrophages were obtained from ATCC and cultured in gelatin coated flasks in F12K medium +15% heat inactivated FBS+antibiotics. For uptake experiments, NR8383 were seeded in gelatin coated 96 well plates and allowed to reach confluence. […] Each condition was carried out in triplicate. […] Cells were transferred to V-bottom 96 well plates and centrifuged (800 g, 7 min, 4C) to collect. Pellets were washed with cold 5 mM EDTA and again centrifuged. Cells were then resuspended in 1% paraformaldehyde in PBS and stored at 4C in the dark until analysis.
Uptake of Alexa488-SI-0052, as measured by cellular fluorescence, was assessed using flow cytometry (FACSCalibur). The geometric mean of fluorescence for 5000-10000 cells was measured for each sample. Mannose specific uptake was taken to be the difference between total uptake (without mannan) and the uptake in the presence of mannan (non-specific uptake).
The uptake of Alexa488-SI-0052 was measured, as described above, in the presence of various sugars known to have varying affinities for the mannose receptor. NR8383 were incubated with a constant concentration of Alexa488-SI-0052 (250 nM, chosen because this concentration lies on the concentration dependent portion of the Alexa488-SI-0052 uptake curve) and varying concentrations of α-methyl mannose (α-MM), glucose and galactose.

Turning to `COC1O[C@H](CO)[C@@H](O)[C@H](O)[C@@H]1O` (stereo partly drawn) [α-MM, α-methyl mannose], the “Interference with Alexa488-SI-0052 uptake (rank order)” value is “interferes the most”. With `O=C[C@H](O)[C@@H](O)[C@@H](O)[C@H](O)CO` [galactose], the “Interference with Alexa488-SI-0052 uptake (rank order)” value is listed as “then galactose”.

These data come from patent US20130302825A1, “USES OF MACROPHAGE MANNOSE RECEPTOR TO SCREEN COMPOUNDS AND USES OF THESE COMPOUNDS” (Merck, priority 2010, published 2013).
